We go through 44 compounds from BindingDB's records for patent US9796704 (SYMPHONY EVOLUTION, INC., 2017).

Each structure is given as a SMILES string.

Assay in all cases: AlphaScreen Assay
The target in experiment [1] is Receptor tyrosine-protein kinase erbB-2 (Homo sapiens, UniProt P04626).
A further experiment deals with Ephrin type-A receptor 2 (Homo sapiens, UniProt P29317).
In experiment [2] the target is Vascular endothelial growth factor receptor 2 (Homo sapiens, UniProt P35968).
Chain of Vascular endothelial growth factor receptor 2 (P35968 whole entry): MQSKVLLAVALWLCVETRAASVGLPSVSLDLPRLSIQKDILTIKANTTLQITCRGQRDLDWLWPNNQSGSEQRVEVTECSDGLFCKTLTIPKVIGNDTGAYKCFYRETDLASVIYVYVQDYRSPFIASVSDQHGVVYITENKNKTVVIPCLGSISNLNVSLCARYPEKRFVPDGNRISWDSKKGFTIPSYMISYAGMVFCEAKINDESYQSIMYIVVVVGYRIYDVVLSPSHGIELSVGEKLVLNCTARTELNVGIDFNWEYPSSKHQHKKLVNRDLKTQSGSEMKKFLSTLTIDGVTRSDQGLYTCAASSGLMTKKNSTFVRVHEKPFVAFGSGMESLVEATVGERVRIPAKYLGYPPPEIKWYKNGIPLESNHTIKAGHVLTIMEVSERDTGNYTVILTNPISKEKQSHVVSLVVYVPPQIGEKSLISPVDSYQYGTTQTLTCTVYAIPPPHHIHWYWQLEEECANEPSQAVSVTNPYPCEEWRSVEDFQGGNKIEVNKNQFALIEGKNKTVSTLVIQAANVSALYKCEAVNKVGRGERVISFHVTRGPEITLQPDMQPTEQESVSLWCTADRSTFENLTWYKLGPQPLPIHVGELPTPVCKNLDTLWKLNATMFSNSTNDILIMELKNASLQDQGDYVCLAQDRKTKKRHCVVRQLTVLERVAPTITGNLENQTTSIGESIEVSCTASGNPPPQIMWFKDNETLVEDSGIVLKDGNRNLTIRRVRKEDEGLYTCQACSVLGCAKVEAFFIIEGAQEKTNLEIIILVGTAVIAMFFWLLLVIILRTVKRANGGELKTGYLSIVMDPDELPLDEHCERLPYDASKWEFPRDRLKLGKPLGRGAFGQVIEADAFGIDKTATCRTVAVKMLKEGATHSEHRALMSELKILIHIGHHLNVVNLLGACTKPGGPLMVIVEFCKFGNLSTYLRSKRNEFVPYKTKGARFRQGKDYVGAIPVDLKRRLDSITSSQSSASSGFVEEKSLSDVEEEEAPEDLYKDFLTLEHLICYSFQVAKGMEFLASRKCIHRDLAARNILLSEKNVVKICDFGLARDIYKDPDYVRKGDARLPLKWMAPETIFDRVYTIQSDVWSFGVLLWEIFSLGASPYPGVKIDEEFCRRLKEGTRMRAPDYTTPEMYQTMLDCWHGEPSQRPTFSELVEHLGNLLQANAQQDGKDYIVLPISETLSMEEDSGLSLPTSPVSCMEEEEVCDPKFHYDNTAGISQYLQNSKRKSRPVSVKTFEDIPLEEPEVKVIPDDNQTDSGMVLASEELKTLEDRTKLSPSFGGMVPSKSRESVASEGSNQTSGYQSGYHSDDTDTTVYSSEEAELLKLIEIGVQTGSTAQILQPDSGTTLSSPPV

Chain of Ephrin type-A receptor 2 (P29317 whole entry): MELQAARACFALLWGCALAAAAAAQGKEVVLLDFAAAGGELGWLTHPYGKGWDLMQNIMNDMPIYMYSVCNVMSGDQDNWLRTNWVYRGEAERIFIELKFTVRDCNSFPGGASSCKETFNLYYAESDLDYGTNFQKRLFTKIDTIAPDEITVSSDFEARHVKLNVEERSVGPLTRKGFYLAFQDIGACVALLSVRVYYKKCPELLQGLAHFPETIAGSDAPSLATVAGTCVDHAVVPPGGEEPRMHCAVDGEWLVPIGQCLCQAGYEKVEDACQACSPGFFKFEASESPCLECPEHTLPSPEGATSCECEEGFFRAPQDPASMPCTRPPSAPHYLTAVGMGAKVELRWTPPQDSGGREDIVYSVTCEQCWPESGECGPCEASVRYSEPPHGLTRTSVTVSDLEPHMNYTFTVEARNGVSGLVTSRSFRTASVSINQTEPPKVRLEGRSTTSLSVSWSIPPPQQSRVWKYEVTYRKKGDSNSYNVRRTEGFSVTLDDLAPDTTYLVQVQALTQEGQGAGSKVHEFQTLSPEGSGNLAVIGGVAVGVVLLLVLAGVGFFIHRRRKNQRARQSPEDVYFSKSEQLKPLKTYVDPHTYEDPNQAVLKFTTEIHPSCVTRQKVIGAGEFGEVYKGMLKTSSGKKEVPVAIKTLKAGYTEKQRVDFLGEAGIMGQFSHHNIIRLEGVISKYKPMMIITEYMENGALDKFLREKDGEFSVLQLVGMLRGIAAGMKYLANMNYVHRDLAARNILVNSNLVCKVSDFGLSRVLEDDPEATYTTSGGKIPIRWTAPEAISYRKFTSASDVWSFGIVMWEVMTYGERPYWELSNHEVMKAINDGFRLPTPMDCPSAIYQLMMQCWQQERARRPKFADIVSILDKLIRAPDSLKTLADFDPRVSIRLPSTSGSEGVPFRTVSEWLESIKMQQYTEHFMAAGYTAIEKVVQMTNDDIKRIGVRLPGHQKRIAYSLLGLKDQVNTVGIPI
Chain of Receptor tyrosine-protein kinase erbB-2 (P04626 whole entry): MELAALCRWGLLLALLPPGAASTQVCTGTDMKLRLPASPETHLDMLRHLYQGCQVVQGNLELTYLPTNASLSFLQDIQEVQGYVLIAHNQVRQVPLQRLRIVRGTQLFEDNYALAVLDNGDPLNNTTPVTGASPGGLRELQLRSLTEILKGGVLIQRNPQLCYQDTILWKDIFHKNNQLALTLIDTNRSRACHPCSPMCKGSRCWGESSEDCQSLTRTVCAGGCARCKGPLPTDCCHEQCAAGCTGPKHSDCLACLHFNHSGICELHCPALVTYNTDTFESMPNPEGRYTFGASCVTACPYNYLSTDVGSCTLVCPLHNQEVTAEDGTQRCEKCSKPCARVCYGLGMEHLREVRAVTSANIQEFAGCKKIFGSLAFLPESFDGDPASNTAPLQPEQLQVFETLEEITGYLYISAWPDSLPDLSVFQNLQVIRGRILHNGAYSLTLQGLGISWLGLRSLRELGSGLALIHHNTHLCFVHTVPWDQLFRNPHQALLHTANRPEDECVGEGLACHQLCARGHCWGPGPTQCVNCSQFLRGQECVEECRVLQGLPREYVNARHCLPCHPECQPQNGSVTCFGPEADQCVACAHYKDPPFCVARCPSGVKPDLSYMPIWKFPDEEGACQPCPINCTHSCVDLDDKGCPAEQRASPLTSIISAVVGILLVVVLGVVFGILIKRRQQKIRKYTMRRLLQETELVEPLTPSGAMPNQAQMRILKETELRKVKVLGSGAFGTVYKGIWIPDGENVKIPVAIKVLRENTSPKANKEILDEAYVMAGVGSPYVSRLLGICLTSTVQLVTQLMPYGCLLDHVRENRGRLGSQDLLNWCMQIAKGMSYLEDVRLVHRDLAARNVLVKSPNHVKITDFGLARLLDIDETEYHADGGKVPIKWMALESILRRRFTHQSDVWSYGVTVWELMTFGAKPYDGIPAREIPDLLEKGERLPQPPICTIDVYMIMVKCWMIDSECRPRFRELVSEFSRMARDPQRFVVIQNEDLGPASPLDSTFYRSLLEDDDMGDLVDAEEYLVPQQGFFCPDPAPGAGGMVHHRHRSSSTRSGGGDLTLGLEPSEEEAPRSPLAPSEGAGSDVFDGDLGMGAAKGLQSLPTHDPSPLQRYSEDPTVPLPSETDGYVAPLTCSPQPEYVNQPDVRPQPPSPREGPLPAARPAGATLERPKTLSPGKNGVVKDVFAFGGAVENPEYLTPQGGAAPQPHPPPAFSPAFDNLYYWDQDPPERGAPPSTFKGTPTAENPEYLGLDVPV

Take `COc1cc2c(Nc3ccc(Cl)c(Cl)c3)ncnc2cc1OCC1CN2CCOCC2CO1` (centres undefined) [US9796704, Entry 25]: the IC50 result in experiment [1] is “in the range around 10500 nM”.

On to `COc1cc2c(Nc3ccc(Cl)c(Cl)c3)ncnc2cc1OC[C@@H]1CO[C@H]2[C@@H]1OC[C@@H]2OC` [US9796704, Entry 42], for which, in experiment [1], the IC50 result is “in the range around 10500 nM”.

In the case of `COc1cc2c(Nc3ccc(Cl)c(Cl)c3F)ncnc2cc1OCC1CO[C@@H]2[C@@H](OC)CO[C@H]12` (some centres undefined) [US9796704, Entry 43], the IC50 entry in experiment [1] was “in the range around 10500 nM”.

With `COc1cc2c(Nc3ccc(C(F)(F)F)cc3Br)ncnc2cc1O[C@@H]1CO[C@@H]2[C@H]1OC[C@H]2F` [US9796704, Entry 125], in experiment [1], the IC50 result was “in the range around 525 nM”.

For `COc1cc2c(Nc3ccc(Cl)c(Cl)c3)ncnc2cc1OCc1noc(C2CCNCC2)n1` [US9796704, Entry 141], the IC50 entry (at Ephrin type-A receptor 2; in experiment [2]) was “in the range around 525 nM” in each case.

With `COc1cc2c(Nc3ccc(Cl)c(Cl)c3)ncnc2cc1OCc1noc(C2CCN(C)CC2)n1` [US9796704, Entry 142], the IC50 entry (against Ephrin type-A receptor 2; in experiment [2]) was “in the range around 525 nM” throughout.

On to `COc1cc2c(Nc3ccc(Cl)c(Cl)c3)ncnc2cc1OCc1nc(CN2CCOCC2)no1` [US9796704, Entry 143], for which the IC50 result (at Ephrin type-A receptor 2; in experiment [2]) was “in the range around 525 nM” throughout.

`COc1cc2c(Nc3ccc(Cl)c(Cl)c3)ncnc2cc1OCc1noc(C2CCCCN2)n1` (centres undefined) [US9796704, Entry 145]: the IC50 result at Ephrin type-A receptor 2 is “in the range around 10500 nM”; in experiment [2], “in the range around 525 nM”.

For the compound `COc1cc2c(Nc3ccc(Cl)c(Cl)c3)ncnc2cc1OCC1CN(Cc2ccccc2)CCO1` (centres undefined) [US9796704, Entry 147], the values for the IC50 entry (against Ephrin type-A receptor 2; in experiment [2]) were “in the range around 10500 nM” and “in the range around 525 nM”, respectively.

For the compound `COc1cc2c(Nc3ccc(Cl)c(Cl)c3)ncnc2cc1OCc1noc(C2CCCNC2)n1` (centres undefined) [US9796704, Entry 153], the IC50 result (against Ephrin type-A receptor 2; in experiment [2]) was “in the range around 525 nM” each time.

As for `COc1cc2c(Nc3ccc(Cl)c(Cl)c3)ncnc2cc1OCc1noc(C2CCCCN2C)n1` (centres undefined) [US9796704, Entry 154], the IC50 entry (at Ephrin type-A receptor 2; in experiment [2]) was “in the range around 525 nM” throughout.

For the compound `COc1cc2c(Nc3ccc(Cl)c(Cl)c3)ncnc2cc1OCc1noc(C2CCCN(C)C2)n1` (centres undefined) [US9796704, Entry 156], the IC50 result (against Ephrin type-A receptor 2; in experiment [2]) was “in the range around 525 nM” throughout.

With `COc1cc2c(Nc3ccc(Cl)c(Cl)c3)ncnc2cc1OCc1cc(C)on1` [US9796704, Entry 160], the IC50 result (against Ephrin type-A receptor 2; in experiment [2]) was “in the range around 525 nM” in each case.

In the case of `COc1cc2c(Nc3ccc(Cl)c(Cl)c3)ncnc2cc1OCc1ccc2nonc2c1` [US9796704, Entry 163], the half-maximal inhibitory concentration (IC50) result (against Ephrin type-A receptor 2; in experiment [2]) was “in the range around 525 nM” throughout.

Take `COc1cc2c(Nc3ccc(Cl)c(Cl)c3)ncnc2cc1OCc1c(-c2ccccc2)nn(C)c1Cl` [US9796704, Entry 175]: the IC50 entry (against Ephrin type-A receptor 2; in experiment [2]) was “in the range around 525 nM” each time.

As to `COc1cc2c(Nc3ccc(Cl)c(Cl)c3)ncnc2cc1OCc1nc(-c2ccncc2)cs1` [US9796704, Entry 203], the IC50 entry in experiment [1] is “in the range around 525 nM”.

For `CCN1CCN(c2noc(COc3cc4ncnc(Nc5ccc(Cl)c(Cl)c5)c4cc3OC)n2)CC1` [US9796704, Entry 220], the IC50 result in experiment [1] and in experiment [2] was “in the range around 525 nM” in each case.

Consider `COc1cc2c(Nc3ccc(Cl)c(Cl)c3)ncnc2cc1OCc1csc(-c2ccc(C(F)(F)F)cc2)n1` [US9796704, Entry 222], for which the IC50 result in experiment [1] and in experiment [2] was “in the range around 525 nM” each time.

As for `COc1cc2c(Nc3ccc(Cl)c(Cl)c3)ncnc2cc1OCc1csc(-c2ccc(Cl)cc2)n1` [US9796704, Entry 223], the 50% inhibitory concentration (IC50) entry in experiment [1] and in experiment [2] was “in the range around 525 nM” each time.

For the compound `COc1cc2c(Nc3ccc(Cl)c(Cl)c3)ncnc2cc1OCc1noc(-c2c(C)noc2C)n1` [US9796704, Entry 224], the IC50 entry in experiment [1] and in experiment [2] was “in the range around 525 nM” in each case.

On to `COc1cc2c(Nc3ccc(Cl)c(Cl)c3)ncnc2cc1OCc1csc2ccc(Cl)cc12` [US9796704, Entry 225], for which the IC50 result in experiment [1] and in experiment [2] was “in the range around 10500 nM” throughout.

For the compound `COc1cc2c(Nc3ccc(Cl)c(Cl)c3)ncnc2cc1OCc1noc(-c2ccccc2OC)n1` [US9796704, Entry 227], the IC50 entry in experiment [1] and in experiment [2] was “in the range around 525 nM” in each case.

For the compound `COc1cc2c(Nc3ccc(Cl)c(Cl)c3)ncnc2cc1OCc1nnc(-c2ccc(C)cc2)o1` [US9796704, Entry 228], the IC50 entry in experiment [1] and in experiment [2] was “in the range around 525 nM” in each case.

`COc1cc2c(Nc3ccc(Cl)c(Cl)c3)ncnc2cc1OCc1nccn1Cc1ccccc1` [US9796704, Entry 229]: the IC50 entry in experiment [1] and in experiment [2] was “in the range around 525 nM” in each case.

Turning to `COc1cc2c(Nc3ccc(Cl)c(Cl)c3)ncnc2cc1OCc1cc(Br)cc(Br)c1` [US9796704, Entry 232], in experiment [1], the IC50 result was “in the range around 525 nM”.

With `COc1cc2c(Nc3ccc(Cl)c(Cl)c3)ncnc2cc1OCc1noc(-c2ccccc2)n1` [US9796704, Entry 235], the IC50 entry in experiment [1] was “in the range around 525 nM”.

Take `CCN1CCCC(c2nc(COc3cc4ncnc(Nc5ccc(Cl)c(Cl)c5)c4cc3OC)no2)C1` (centres undefined) [US9796704, Entry 239]: the IC50 result in experiment [1] was “in the range around 10500 nM”.

In the case of `COc1cc2c(Nc3ccc(Cl)c(Cl)c3)ncnc2cc1OCc1csc(N(C)C)n1` [US9796704, Entry 240], the IC50 entry in experiment [1] and in experiment [2] was “in the range around 525 nM” throughout.

As for `CCN1CCCOC(COc2cc3ncnc(Nc4ccc(Cl)c(Cl)c4)c3cc2OC)C1` (centres undefined) [US9796704, Entry 241], the IC50 result in experiment [1] and in experiment [2] was “in the range around 525 nM” in each case.

Regarding `CCN1CCC(c2nc(COc3cc4ncnc(Nc5ccc(Cl)c(Cl)c5)c4cc3OC)cs2)CC1` [US9796704, Entry 242], the IC50 entry in experiment [1] was “in the range around 525 nM”.

In the case of `COc1cc2c(Nc3ccc(Cl)c(Cl)c3)ncnc2cc1OCc1csc(CO)n1` [US9796704, Entry 246], the IC50 result in experiment [1] and in experiment [2] was “in the range around 525 nM” each time.

Turning to `COc1cc2c(Nc3ccc(Cl)c(Cl)c3)ncnc2cc1OCc1csc([C@@H]2CSCN2)n1` [US9796704, Entry 248], the IC50 entry in experiment [1] and in experiment [2] was “in the range around 525 nM” in each case.

Consider `COc1cc2c(Nc3ccc(Cl)c(Cl)c3)ncnc2cc1OCc1csc(C2CCCCN2)n1` (centres undefined) [US9796704, Entry 249], for which the values for the IC50 entry in experiment [1] and in experiment [2] were “in the range around 10500 nM” and “in the range around 525 nM”, respectively.

For `COc1cc2c(Nc3ccc(Cl)c(Cl)c3)ncnc2cc1OCc1csc(C2CCCCN2C)n1` (centres undefined) [US9796704, Entry 250], the IC50 result is “in the range around 10500 nM” in experiment [1] and “in the range around 525 nM” in experiment [2].

Take `COc1cc2c(Nc3ccc(Cl)c(Cl)c3)ncnc2cc1OCc1csc(C2CCCNC2)n1` (centres undefined) [US9796704, Entry 251]: the IC50 entry in experiment [1] and in experiment [2] was “in the range around 10500 nM” throughout.

Consider `CCN1CCCCC1c1nc(COc2cc3ncnc(Nc4ccc(Cl)c(Cl)c4)c3cc2OC)cs1` (centres undefined) [US9796704, Entry 253], for which the IC50 result in experiment [1] and in experiment [2] was “in the range around 10500 nM” in each case.

Consider `CCN1CCCC(c2nc(COc3cc4ncnc(Nc5ccc(Cl)c(Cl)c5)c4cc3OC)cs2)C1` (centres undefined) [US9796704, Entry 254], for which the figures for the IC50 entry in experiment [1] and in experiment [2] were “in the range around 525 nM” and “in the range around 10500 nM”, respectively.

With `COCCN1CCCOC(COc2cc3ncnc(Nc4ccc(Cl)c(Cl)c4)c3cc2OC)C1` (centres undefined) [US9796704, Entry 260], the IC50 entry in experiment [1] was “in the range around 525 nM”; in experiment [2], “in the range around 10500 nM”.

Consider `COc1cc2c(Nc3ccc(Cl)c(Cl)c3)ncnc2cc1OCC1CN(C(C)C)CCCO1` (centres undefined) [US9796704, Entry 261], for which the IC50 result in experiment [1] is “in the range around 525 nM”; in experiment [2], “in the range around 10500 nM”.

In the case of `COc1cc2c(Nc3ccc(Cl)c(Cl)c3)ncnc2cc1OCc1csc(N2CCNCC2)n1` [US9796704, Entry 262], the IC50 result in experiment [1] and in experiment [2] was “in the range around 10500 nM” throughout.

As to `COc1cc2c(Nc3ccc(Cl)c(Cl)c3)ncnc2cc1OCc1noc(C2CCCN2)n1` (centres undefined) [US9796704, Entry 263], the IC50 result in experiment [1] and in experiment [2] was “in the range around 10500 nM” each time.

With `CCN1CCCC1c1nc(COc2cc3ncnc(Nc4ccc(Cl)c(Cl)c4)c3cc2OC)no1` (centres undefined) [US9796704, Entry 264], the IC50 entry is “in the range around 10500 nM” in experiment [1] and “in the range around 525 nM” in experiment [2].

Turning to `COc1cc2c(Nc3ccc(Cl)c(Cl)c3)ncnc2cc1OCc1nc([C@@H]2CCCN2C)no1` [US9796704, Entry 265], the IC50 result in experiment [1] and in experiment [2] was “in the range around 10500 nM” throughout.

On to `COc1cc2c(Nc3ccc(Cl)c(Cl)c3)ncnc2cc1OCc1csc([C@@H]2CCCN2C)n1` [US9796704, Entry 266], for which the IC50 result in experiment [1] and in experiment [2] was “in the range around 10500 nM” each time.
